Where two headings read alike, the source gives them in different places.
Columns and labels:
[1] = system: Puccinia recondita; test: Synergistic mixtures, greenhouse, preventative control of brown rust on wheat caused by Puccinia recondita (Use Example 34); type: in vivo; conditions: single compound, untreated control 90% disease
Experimental: These percentages were converted into efficacies. An efficacy of 0 means that the growth level of the pathogens corresponds to that of the untreated control; an efficacy of 100 means that the pathogens were not growing.
The expected efficacies of active compound mixtures were determined using Colby's formula [R. S. Colby, Calculating synergistic and antagonistic responses of herbicide combinations, Weeds 15, 20-22 (1967)] and compared with the observed efficacies. E=x+y−x·y/100 Colby's formula • E expected efficacy, expressed in % of the untreated control, when using the mixture of the compounds A and B at the concentration a and b • x efficacy, expressed in % of the untreated control, when using compound A at a concentration of a • y efficacy, expressed in % of the untreated control, when using compound B at a concentration of b A) Microtiter Tests
The spray solutions were prepared in several steps:
The stock solution were prepared as follows: a mixture of acetone and/or dimethylsulfoxide and the wetting agent/emulsifier Wettol, which is based on ethoxylated alkylphenoles, in a relation (volume) solvent-emulsifier of 99 to 1 was added to 25 mg of the compound to give a total of 10 ml. Water was then added to total volume of 100 ml.
This stock solution was diluted with the described solvent-emulsifier-water mixture to the given concentration. The compounds pyraclostrobin, boscalid and epoxiconazole were used as commercial finished formulations and diluted with water to the stated concentration of the active compound.
The first two developed leaves of pot-grown wheat seedling were sprayed to run-off with an aqueous suspension, containing the concentration of active ingredient or their mixture as described below. The next day the plants were inoculated with spores of Puccinia recondita. To ensure the success the artificial inoculation, the plants were transferred to a humid chamber without light and a relative humidity of 95 to 99% and at temperatures between 20 and 24° C. for 24 h. Then, the plants were cultivated for 6 days in a greenhouse chamber at 20 to 24° C. and a relative humidity between 65 and 70%. The extent of fungal attack on the leaves was visually assessed as % diseased leaf area.

[2] = system: Fusarium culmorum; test: Synergistic mixtures, microtiter test, Fusarium culmorum (Use Example 27); type: cell-based; conditions: single compound
[3] = system: Gaeumannomyces graminis; test: Synergistic mixtures, microtiter test, Gaeumannomyces graminis (Use Example 30); type: cell-based; conditions: single compound
[4] = system: Septoria tritici; test: Synergistic mixtures, microtiter test, leaf blotch pathogen Septoria tritici (Use Example 26); type: cell-based; conditions: single compound
[5] = system: Thielaviopsis basicola; test: Synergistic mixtures, microtiter test, Thielaviopsis basicola (Use Example 31); type: cell-based; conditions: single compound
[6] = system: Pyricularia oryzae; type: cell-based; conditions: single compound
[7] = system: Phytophthora infestans; type: cell-based; conditions: single compound
[8] = system: Pyrenophora teres; test: Synergistic mixtures, microtiter test, net blotch pathogen Pyrenophora teres (Use Example 29); type: cell-based; conditions: single compound
[9] = system: Alternaria solani; test: Synergistic mixtures, microtiter test, early blight pathogen Alternaria solani (Use Example 24); type: cell-based; conditions: single compound
[10] = system: Colletotrichum truncatum; test: Synergistic mixtures, microtiter test, Colletotrichum truncatum (Use Example 28); type: cell-based; conditions: single compound
[11] = system: Verticillium dahliae; conditions: single compound
[12] = system: Phakopsora pachyrhizi; test: Comparative greenhouse test, curative action against soybean rust Phakopsora pachyrhizi (Use Example 22); type: in vivo; conditions: curative spray on soybean, untreated control 100
Experimental: The active compounds were formulated separately or together as a stock solution comprising 25 mg of active compound which was made up to 10 ml using a mixture of acetone and/or dimethyl sulfoxide (DMSO) and the emulsifier Wettol EM 31 (wetting agent having emulsifying and dispersing action based on ethoxylated alkylphenols) in a volume ratio of solvent/emulsifier of 99 to 1. This solution was then made up to 100 ml using water. This stock solution was diluted with the solvent/emulsifier/water mixture described to the active compound concentration given below.
Leaves of potted soybean seedlings were dusted with a suspension of spores of rust of soybean (Phakopsora pachyrhizi). The plants were then placed in a chamber with high atmospheric humidity (90 to 95%), at 23 to 27° C., for 24 hours. During this time, the spores germinated and the germinal tubes penetrated into the leaf tissue. The next day, the infected plants were sprayed to runoff point with an aqueous suspension having the concentration of active compound stated in table 4 (250 ppm). After drying of the sprayed suspension, the test plants were returned to the greenhouse and cultivated at temperatures between 23 and 27° C. and at 60 to 80% relative atmospheric humidity for a further 14 days. The extent of the rust development on the leaves was then determined visually.

[13] = system: Pyricularia oryzae; type: cell-based; conditions: control =100%, day 7
[14] = system: Fusarium oxysporum; conditions: single compound, 0.25 ppm

O=S(=O)(NCc1ccncc1)c1ccc(Oc2ccc(C(F)(F)F)cn2)cc1 [Example 9]
Observed efficacy (%) ([1]; 16 ppm): 0%
Observed efficacy (%) ([2]; 16 ppm): 0%
Observed efficacy (%) ([3]; 0.25 ppm): 5%
Observed efficacy (%) ([4]; 4 ppm): 2%
Observed efficacy (%) ([5]; 1 ppm): 11%

Fc1ccc([C@]2(Cn3cncn3)O[C@H]2c2ccccc2Cl)cc1 [Epoxiconazol, reference compound]
Observed efficacy (%) ([1]; 0.063 ppm): 0%
Observed efficacy (%) ([1]; 0.25 ppm): 0%
Observed efficacy (%) ([1]; 1 ppm): 33%
Observed efficacy (%) ([3]; 0.004 ppm): 2%
Observed efficacy (%) ([6]; 0.063 ppm): 0%
Observed efficacy (%) ([7]; 0.001 ppm): 0%

COc1cc(CNS(=O)(=O)c2ccc(Oc3ccc(Cl)cn3)cc2)ccn1 [Example 74]
Observed efficacy (%) ([1]; 16 ppm): 44%
Observed efficacy (%) ([2]; 16 ppm): 1%
Observed efficacy (%) ([8]; 0.25 ppm): 33%
Observed efficacy (%) ([9]; 0.063 ppm): 0%
Observed efficacy (%) ([4]; 4 ppm): 58%
Observed efficacy (%) ([10]; 16 ppm): 35%
Observed efficacy (%) ([5]; 1 ppm): 32%

COc1cc(CNS(=O)(=O)c2ccc(Oc3ccc(C(F)(F)F)cn3)cc2)ccn1 [Example 12]
Observed efficacy (%) ([1]; 0.25 ppm): 0%
Observed efficacy (%) ([1]; 1 ppm): 22%
Observed efficacy (%) ([2]; 16 ppm): 3%
Observed efficacy (%) ([3]; 0.016 ppm): 30%
Observed efficacy (%) ([8]; 0.063 ppm): 25%
Observed efficacy (%) ([9]; 0.063 ppm): 6%
Observed efficacy (%) ([6]; 0.063 ppm): 45%
Observed efficacy (%) ([4]; 4 ppm): 47%
Observed efficacy (%) ([10]; 16 ppm): 50%

COc1cnccc1CNS(=O)(=O)c1ccc(Oc2nccc(C(F)(F)F)n2)cc1 [Example 64]
Observed efficacy (%) ([1]; 4 ppm): 0%
Observed efficacy (%) ([1]; 16 ppm): 0%
Observed efficacy (%) ([2]; 16 ppm): 0%
Observed efficacy (%) ([8]; 0.25 ppm): 5%
Observed efficacy (%) ([9]; 0.063 ppm): 0%
Observed efficacy (%) ([6]; 1 ppm): 12%
Observed efficacy (%) ([5]; 16 ppm): 20%

COc1cc(CNS(=O)(=O)c2ccc(Oc3cccc(C)n3)cc2)ccn1 [Example 45]
Observed efficacy (%) ([1]; 4 ppm): 0%
Observed efficacy (%) ([1]; 16 ppm): 0%
Observed efficacy (%) ([2]; 16 ppm): 2%
Observed efficacy (%) ([8]; 1 ppm): 25%
Observed efficacy (%) ([9]; 0.063 ppm): 1%
Observed efficacy (%) ([6]; 0.063 ppm): 30%
Observed efficacy (%) ([4]; 4 ppm): 50%
Observed efficacy (%) ([10]; 4 ppm): 25%

N#Cc1c(Cl)c(Cl)c(Cl)c(C#N)c1Cl [Chlorothalonil, reference compound]
Observed efficacy (%) ([2]; 4 ppm): 5%
Observed efficacy (%) ([3]; 0.004 ppm): 0%
Observed efficacy (%) ([3]; 0.016 ppm): 9%
Observed efficacy (%) ([6]; 0.063 ppm): 0%
Observed efficacy (%) ([11]; 1 ppm): 40%
Observed efficacy (%) ([7]; 0.004 ppm): 4%
Observed efficacy (%) ([7]; 0.25 ppm): 10%
Observed efficacy (%) ([5]; 1 ppm): 56%

Cc1nccc(CNS(=O)(=O)c2ccc(Oc3ccc(Br)cn3)cc2)c1C [Example 71]
Observed efficacy (%) ([1]; 16 ppm): 0%
Observed efficacy (%) ([2]; 16 ppm): 1%
Observed efficacy (%) ([3]; 0.063 ppm): 52%
Observed efficacy (%) ([8]; 0.25 ppm): 20%
Observed efficacy (%) ([9]; 0.063 ppm): 4%
Observed efficacy (%) ([4]; 4 ppm): 43%
Observed efficacy (%) ([11]; 4 ppm): 55%
Observed efficacy (%) ([10]; 4 ppm): 29%
Observed efficacy (%) ([5]; 1 ppm): 9%
Observed efficacy (%) ([5]; 16 ppm): 56%

Cc1nccc(CNS(=O)(=O)c2ccc(Oc3ccccc3)cc2)c1C [comparative example 2, reference compound]
infection in [%] at 250 ppm [12]: 100%

COc1cc(CNS(=O)(=O)c2ccc(Oc3ncc(C(F)(F)F)cc3C)cc2)ccn1 [Example 160]
Observed efficacy (%) ([1]; 1 ppm): 0%
Observed efficacy (%) ([1]; 4 ppm): 0%
Observed efficacy (%) ([2]; 16 ppm): 3%
Observed efficacy (%) ([8]; 0.25 ppm): 11%
Observed efficacy (%) ([6]; 0.25 ppm): 60%
Observed efficacy (%) ([4]; 4 ppm): 55%
Observed efficacy (%) ([7]; 1 ppm): 17%
Observed efficacy (%) ([10]; 4 ppm): 37%
Observed efficacy (%) ([5]; 1 ppm): 14%

COc1cc(CNS(=O)(=O)c2ccc(Oc3ccccc3)cc2)ccn1 [comparative example 1, reference compound]
growth in [%] at 31 ppm [13]: 97%

COc1cc(CNS(=O)(=O)c2ccc(Oc3ccccn3)cc2)ccn1 [Example 7]
Observed efficacy (%) ([2]; 16 ppm): 7%
Observed efficacy (%) ([3]; 0.063 ppm): 9%
Observed efficacy (%) ([3]; 0.25 ppm): 51%
Observed efficacy (%) ([8]; 0.25 ppm): 17%
Observed efficacy (%) ([8]; 1 ppm): 28%
Observed efficacy (%) ([9]; 0.016 ppm): 11%
Observed efficacy (%) ([6]; 0.063 ppm): 1%
growth in [%] at 31 ppm [13]: 53%
Observed efficacy (%) ([7]; 0.016 ppm): 11%
Observed efficacy (%) ([10]; 4 ppm): 20%

Cc1cc(Oc2ccc(C(F)(F)F)cn2)ccc1S(=O)(=O)NCc1ccnc(C)c1C [Example 203]
Observed efficacy (%) ([1]; 4 ppm): 22%
Observed efficacy (%) ([1]; 16 ppm): 44%
Observed efficacy (%) ([2]; 16 ppm): 1%
Observed efficacy (%) ([8]; 0.25 ppm): 34%
Observed efficacy (%) ([9]; 0.063 ppm): 0%
Observed efficacy (%) ([4]; 4 ppm): 45%
Observed efficacy (%) ([11]; 1 ppm): 52%
Observed efficacy (%) ([11]; 4 ppm): 56%
Observed efficacy (%) ([10]; 4 ppm): 36%
Observed efficacy (%) ([5]; 1 ppm): 0%
Observed efficacy (%) ([5]; 4 ppm): 13%

Cc1nccc(CNS(=O)(=O)c2ccc(Oc3ncccc3C(F)(F)F)cc2)c1C [Example 28]
Observed efficacy (%) ([1]; 1 ppm): 0%
Observed efficacy (%) ([2]; 16 ppm): 1%
Observed efficacy (%) ([3]; 0.063 ppm): 29%
Observed efficacy (%) ([8]; 0.25 ppm): 4%
Observed efficacy (%) ([6]; 0.063 ppm): 27%
Observed efficacy (%) ([6]; 0.25 ppm): 52%
Observed efficacy (%) ([4]; 4 ppm): 29%
Observed efficacy (%) ([7]; 0.016 ppm): 10%
Observed efficacy (%) ([10]; 4 ppm): 20%
Observed efficacy (%) ([5]; 16 ppm): 23%

COc1cc(CNS(=O)(=O)c2ccc(Oc3ncccc3C(F)(F)F)cc2)ccn1 [Example 13]
Observed efficacy (%) ([2]; 16 ppm): 2%
Observed efficacy (%) ([3]; 0.016 ppm): 6%
Observed efficacy (%) ([3]; 0.063 ppm): 31%
Observed efficacy (%) ([8]; 0.063 ppm): 19%
Observed efficacy (%) ([4]; 4 ppm): 39%
Observed efficacy (%) ([7]; 0.25 ppm): 16%
Observed efficacy (%) ([10]; 4 ppm): 26%

O=C(Nc1ccccc1-c1ccc(Cl)cc1)c1cccnc1Cl [Boscalid, reference compound]
Observed efficacy (%) ([1]; 0.25 ppm): 0%
Observed efficacy (%) ([1]; 1 ppm): 0%
Observed efficacy (%) ([1]; 4 ppm): 0%
Observed efficacy (%) ([1]; 16 ppm): 0%
Observed efficacy (%) ([2]; 16 ppm): 1%
Observed efficacy (%) ([8]; 0.25 ppm): 49%
Observed efficacy (%) ([9]; 0.063 ppm): 23%
Observed efficacy (%) ([7]; 0.016 ppm): 5%

O=C1C2CC=CCC2C(=O)N1SC(Cl)(Cl)Cl (stereo not drawn) [Captan, reference compound]
Observed efficacy (%) ([2]; 4 ppm): 39%
Observed efficacy (%) ([3]; 0.016 ppm): 12%
Observed efficacy (%) ([3]; 0.063 ppm): 42%
Observed efficacy (%) ([8]; 0.016 ppm): 5%
Observed efficacy (%) ([8]; 0.063 ppm): 16%
Observed efficacy (%) ([6]; 0.063 ppm): 0%
Observed efficacy (%) ([4]; 1 ppm): 31%
Observed efficacy (%) ([11]; 0.25 ppm): 26%
Observed efficacy (%) ([7]; 0.004 ppm): 0%
Observed efficacy (%) ([7]; 0.063 ppm): 7%
Observed efficacy (%) ([7]; 0.25 ppm): 3%
Observed efficacy (%) ([5]; 0.25 ppm): 40%

COC(=O)N(OC)c1ccccc1COc1ccn(-c2ccc(Cl)cc2)n1 [Pyraclostrobin, reference compound]
Observed efficacy (%) ([1]; 0.016 ppm): 0%
Observed efficacy (%) ([1]; 0.063 ppm): 0%
Observed efficacy (%) ([1]; 0.25 ppm): 0%
Observed efficacy (%) ([2]; 0.25 ppm): 0%
Observed efficacy (%) ([3]; 0.00025 ppm): 29%
Observed efficacy (%) ([3]; 0.001 ppm): 57%
Observed efficacy (%) ([8]; 0.016 ppm): 52%
Observed efficacy (%) ([6]; 0.001 ppm): 17%
Observed efficacy (%) ([7]; 0.00025 ppm): 8%
Observed efficacy (%) ([10]; 0.063 ppm): 27%
Observed efficacy (%) ([10]; 0.25 ppm): 60%
Observed efficacy (%) [14]: 0%
Observed efficacy (%) ([5]; 0.25 ppm): 19%

Cc1nccc(CNS(=O)(=O)c2ccc(Oc3ccccn3)cc2)c1C [Example 33]
Observed efficacy (%) ([1]; 16 ppm): 33%
Observed efficacy (%) ([2]; 16 ppm): 1%
Observed efficacy (%) ([3]; 0.063 ppm): 4%
Observed efficacy (%) ([3]; 0.25 ppm): 21%
Observed efficacy (%) ([8]; 0.25 ppm): 0%
Observed efficacy (%) ([9]; 0.063 ppm): 4%
Observed efficacy (%) ([6]; 0.25 ppm): 38%
Observed efficacy (%) ([4]; 4 ppm): 22%
Observed efficacy (%) ([10]; 4 ppm): 24%
infection in [%] at 250 ppm [12]: 5%
Observed efficacy (%) ([5]; 16 ppm): 9%
